{"source": "patent US5173494A", "about": "“Specific inhibition of angiotensin-II binding to angiotensin-II receptor subtype-2” (E. I. du Pont de Nemours and Company, priority 1991, dated 1992)", "molecules": {"B1": {"name": "renin: Renin (Sigma Chemicals), a stimulator of endogenous AII biosynthesis (protein, UniProt P00797 67-406, looked up)", "Renin": "LTLGNTTSSVILTNYMDTQYYGEIGIGTPPQTFKVVFDTGSSNVWVPSSKCSRLYTACVYHKLFDASDSSSYKHNGTELTLRYSTGTVSGFLSQDIITVGGITVTQMFGEVTEMPALPFMLAEFDGVVGMGFIEQAIGRVTPIFDNIISQGVLKEDVFSFYYNRDSENSQSLGGQIVLGGSDPQHYEGNFHYINLIKTGVWQIQMKGVSVGSSTLLCEDGCLALVDTGASYISGSTSSIEKLMEALGAKKRLFDYVVKCNEGPTLPDISFHLGGKEYTLTSADYVFQESYSSKKLCTLAIHAMDIPPPTGPTWALGATFIRKFYTEFDRRNNRIGFALAR"}}, "key": {"[1]": {"system": "renin-induced disruption of passive avoidance retention", "experiment": "Renin-disrupted passive avoidance retention", "assay_type": "in vivo, male Sprague-Dawley rats", "details": "rats; for prevention of renin-induced amnesia: co-administered with renin, IVT", "description": "Experimentally naive male Sprague-Dawley rats […] (Charles River Breeding Laboratories, Kingston, N.Y.), weighing between 175 to 200 gm were used. The animals were housed four per cage (45.0 L×20.0 H×26.0 W cm) with free access to food and water. They were maintained on a 12 h light/dark cycle (lights on 0600 h) and at a room temperature of 22±1° C. with relative humidity of 50±10%.\nThe experimental sessions were conducted in a two-compartment passive avoidance box. One compartment, made of clear plastic with a perforated clear plastic floor, measured 21(L)×24.5(H)×17(W) cm and was illuminated with a 60 watt incandescent light bulb placed 36 cm above the floor. The other compartment, made of black plastic, measured 30.5(L)×20.3(H)×[…] with a floor made of 4 mm stainless steel rods spaced 1.2 cm apart. A grid floor shocker (Coulbourn Instruments) was connected to the steel rods and provided scrambled footshock. The two compartments were separated by a solenoid-operated slide door (Lafayette Instrument Co., Lafayette, Ind.). An electronic counter (Coulbourn Instruments), triggered by the opening or closing of the slide door, recorded acquisition and retention latencies (latencies were defined as the time it took an animal to enter the dark compartment).\nPassive avoidance training began by placing the rat into the clear compartment of the two-compartment passive avoidance box. Following a 10 sec delay, the slide door to the dark compartment was raised. Once the rat moved completely into the dark compartment (all four paws on the shock grid floor) the slide door was lowered, and after a 10 sec delay, a 1.0 mA shock was applied to the grid floor for three sec. A second three sec shock was delivered after an additional 10 sec delay. The rats were immediately removed from the dark compartment and returned to their home cage. A retention test was given 24 h later. It proceeded in the same manner as the training session except that no shock was applied to the grid floor when the rats were provided access to the dark compartment for a maximum of 300 sec.\nAll drugs were administered IVT 60 minutes prior to acquisition training in a volume of 5 μl. Doses are expressed as the free base weight of each compound."}, "[2]": {"system": "mouse habituation (light to dark compartment latency)", "details": "cited from earlier work"}, "[3]": {"system": "ACh in the striatum and hypothalamus", "details": "acute or repeated administration; cited from earlier work"}, "uphill avoidance": {"system": "uphill avoidance", "details": "mice, acute, 30 mg/kg PO; cited from earlier work"}, "[4]": {"system": "scopolamine-induced PA amnesia", "details": "three times per day at 1, 3 and 10 mg/kg PO; cited from earlier work"}, "[5]": {"system": "scopolamine-induced impairment of eight arm radial maze performance", "details": "3 mg/kg IP; cited from earlier work"}, "[6]": {"system": "memory of previously learned tasks", "details": "in vivo; cited from earlier work"}, "[7]": {"system": "renin-induced amnesia in a PA task", "experiment": "PA task after IVT renin (own laboratory)", "assay_type": "in vivo"}, "[8]": {"system": "light/dark habituation performance", "details": "subchronic treatment; cited from earlier work"}, "[9]": {"system": "renin-induced avoidance disruption", "details": "cited from earlier work"}, "[10]": {"system": "retention of a passive avoidance (PA) response", "details": "rats, dorsal neostriatum injection; cited from earlier work"}, "[11]": {"system": "potassium-stimulated release of ACh in entorhinal cortex", "details": "in vitro, entorhinal cortex from rat brain; cited from earlier work"}, "[12]": {"system": "AII in cerebrospinal fluid (CSF)", "details": "renin IVT; increased from 40; cited from earlier work"}}, "data": [{"molecule": "CCCc1nc(C(F)(F)F)c(C(=O)O)n1Cc1ccc(-c2ccccc2-c2nn[nH]n2)cc1", "note": "[Compound C, 2-n-propyl-1-[(2'-(lH-tetrazol-5-yl)biphenyl-4-yl)methyl]-4-trifluoromethylimidazole-5-carboxylic acid]", "values": [{"measurement": "prevention of renin-induced amnesia", "setting": "[1]", "value": "protected against amnesia"}]}, {"molecule": "CCCc1nc(C(F)(F)F)c(CO)n1Cc1ccc(-c2ccccc2-c2nnn[nH]2)cc1", "note": "[Compound D, 2-n-propyl-5-hydroxymethyl-1-[(2'-(1H-tetrazol-5-yl)biphenyl-4-yl)methyl]-4-trifluoromethylimidazole]", "values": [{"measurement": "prevention of renin-induced amnesia", "setting": "[1]", "value": "protected against amnesia"}]}, {"molecule": "Cc1cc(Cn2cnc3c2CC(C(=O)O)N(C(=O)C(c2ccccc2)c2ccccc2)C3)ccc1N", "note": "(stereo not shown) [EXP655, 1-(4-amino-3-methylphenyl)methyl-5-diphenylacetyl-4,5,6,7-tetrahydro-1H-imidazo[4,5-c]pyridine-6-carboxylic acid]", "values": [{"measurement": "prevention of renin-induced amnesia", "setting": "[1]", "value": "less effective in preventing the amnesia"}, {"measurement": "initial latency to move from light to dark compartment", "setting": "[2]; 10.0 ng kg^-1 i.p. b.d., days 2 and 3, vs vehicle", "value": "decrease in the initial latency to move from the light to dark compartment"}, {"measurement": "scopolamine-induced impairment in mice treated with EXP655", "setting": "[2]; EXP655 10.0 ng kg^-1 i.p., scopolamine 0.25 mg kg^-1 i.p., day 6", "value": "not detected"}]}, {"molecule": "CCOC(=O)C(CCc1ccccc1)NC(C)C(=O)N1CC2(CC3CCC2CC3)CC1C(=O)O", "note": "(stereo not shown) [Hoe 288]", "values": [{"measurement": "ACh in the striatum and hypothalamus", "setting": "[3]", "value": "significant decrease in ACh"}, {"measurement": "performance during retention testing, uphill avoidance", "setting": "uphill avoidance", "value": "improved performance during retention testing"}, {"measurement": "effect on scopolamine-induced PA amnesia", "setting": "[4]", "value": "partially reversed the amnesia"}, {"measurement": "effect of muscarinic receptor blockade on performance", "setting": "[5]", "value": "partially antagonized the effects of muscarinic receptor blockade on performance"}]}, {"molecule": "NCCCC[C@H](OP(=O)(O)CCCCc1ccccc1)C(=O)N1CCC[C@H]1C(=O)O", "note": "[SQ 29852]", "values": [{"measurement": "effect on anticholinergic effect on performance", "setting": "[6]", "value": "ameliorate, at least in part, an anticholinergic effect on performance"}, {"measurement": "effect on memory of previously learned tasks", "setting": "[6]", "value": "protective effects on memory of previously learned tasks"}]}, {"molecule": "C[C@H](CS)C(=O)N1CCC[C@H]1C(=O)O", "note": "[captopril]", "values": [{"measurement": "prevention of renin-induced amnesia in a PA task", "setting": "[7]; IVT administration", "value": "prevented"}, {"measurement": "rate of acquisition of light/dark habituation performance", "setting": "[8]", "value": "increased the rate of acquisition"}, {"measurement": "prevention of renin-induced avoidance disruption", "setting": "[9]; IVT, prior to the renin injection", "value": "prevented the renin-induced avoidance disruption"}]}, {"molecule": "CN1[C@@H]2C[C@@H](OC(=O)[C@H](CO)c3ccccc3)C[C@H]1[C@@H]1O[C@@H]12", "note": "[scopolamine]", "values": [{"measurement": "performance following scopolamine in vehicle-treated mice (initial latency)", "setting": "[2]; scopolamine 0.25 mg kg^-1 i.p., day 6", "value": "increase in the initial latency"}]}, {"molecule": "NC(=O)[C@@H]1CCCN1C(=O)[C@H](Cc1cnc[nH]1)NC(=O)[C@@H]1CCC(=O)N1", "note": "[thyrotropin releasing hormone]", "values": [{"measurement": "effect on retention of a PA response", "setting": "[10]", "value": "had no effect"}]}, {"molecule": "AII: Angiotensin-II (AII), a circulating hormone, now thought to act as a neuropeptide in the central nervous system (DRVYIHPF; Angiotensin-2; UniProt P01019 25-32, looked up)", "values": [{"measurement": "basal levels of ACh release", "setting": "[11]", "value": "without effects on basal levels"}, {"measurement": "potassium-stimulated release of ACh", "setting": "[11]", "value": "reduced potassium-stimulated release of ACh"}, {"measurement": "effect on retention of a PA response", "setting": "[10]", "value": "disruption in retention of a PA response"}]}, {"molecule": "[1-sarcosine, 8-threonine]angiotensin-II", "values": [{"measurement": "antagonism of AII effect on ACh release", "setting": "[11]", "value": "antagonized"}]}, {"molecule": "lysine-8-vasopressin", "values": [{"measurement": "effect on retention of a PA response", "setting": "[10]", "value": "had no effect"}]}, {"molecule": "B1", "values": [{"measurement": "amnesia in a PA task", "setting": "[7]; renin administered IVT", "value": "produces a dose-related amnesia"}, {"measurement": "AII in cerebrospinal fluid after renin", "setting": "[12]", "value": "about 5000 fmol per mL"}, {"measurement": "memory deficit produced by renin", "setting": "[1]; renin injected IVT", "value": "produces memory deficit in rats"}, {"measurement": "effect on avoidance learning", "setting": "[9]; renin into lateral ventricle (IVT)", "value": "disruption of avoidance learning"}]}]}
